In series [1] the test system is Mus musculus. The series is described as follows: Anticonvulsant activity in albino mouse assessed as protection against subcutaneous pentylenetetrazole-induced death measured as mortality at 30 mg/kg, ip after 0.5 hr. The format is functional. To be noted: sc, route intraperitoneal.
Series [2] deals with Mus musculus. Put plainly: Anticonvulsant activity against subcutaneous pentylenetetrazole-induced seizures in albino mouse assessed as onset of seizure time at 30 mg/kg, ip after 0.5 hr. The format is functional. The settings on record: route intraperitoneal.
Series [3] relates to Mus musculus. Put plainly: Anticonvulsant activity against maximal electroshock-induced seizure in albino mouse assessed as seizures at 300 mg/kg, ip after 0.5 hr. The format is functional. To be noted: route intraperitoneal.
The test system of series [4] is Mus musculus. Put plainly: Anticonvulsant activity against subcutaneous pentylenetetrazole-induced seizures in albino mouse assessed as onset of seizure time at 100 mg/kg, ip after 0.5 hr. To be noted: route intraperitoneal. The format is functional.
Series [5] concerns Mus musculus. The series is described as follows: Anticonvulsant activity in albino mouse assessed as protection against subcutaneous pentylenetetrazole-induced death measured as mortality at 300 mg/kg, ip after 0.5 hr. The format is functional. To be noted: sc, route intraperitoneal.
Series [6] is described as follows: Neurotoxicity in ip dosed albino mouse measured after 30 mins by rotarod method. The format is toxicity, organism-based. To be noted: in vivo. (Falling from the rotarod earlier than controls is read as motor impairment.)
Series [7] relates to Mus musculus. The series is described as follows: Anticonvulsant activity against subcutaneous pentylenetetrazole-induced seizures in albino mouse assessed as duration of seizure time at 30 mg/kg, ip after 0.5 hr. The format is functional. The settings on record: route intraperitoneal.
The test system of series [8] is Mus musculus. The series is described as follows: Anticonvulsant activity against subcutaneous pentylenetetrazole-induced seizures in albino mouse assessed as duration of seizure time at 300 mg/kg, ip after 0.5 hr. The format is functional. To be noted: route intraperitoneal.
In series [9] the test system is Mus musculus. The series is described as follows: Anticonvulsant activity against subcutaneous pentylenetetrazole-induced seizures in albino mouse assessed as onset of seizure time at 300 mg/kg, ip after 0.5 hr. The format is functional. The settings on record: route intraperitoneal.
The test system of series [10] is Mus musculus. Put plainly: Protective index, ratio of TD50 for neurotoxicity in ip dosed albino mouse to ED50 for anticonvulsant activity in ip dosed albino mouse. The format is functional.
Series [11] deals with Mus musculus. Put plainly: Anticonvulsant activity in ip dosed albino mouse assessed as protection against maximal electroshock-induced seizures after 0.5 hr. The format is functional. On the technique in general: Protection in the maximal electroshock model is a classic sign of anticonvulsant action.
The subject of series [12] is Mus musculus. Put plainly: Anticonvulsant activity against maximal electroshock-induced seizures in albino mouse assessed as seizure at 30 mg/kg, ip after 0.5 hr. The format is functional. The settings on record: route intraperitoneal.
Series [13] deals with Mus musculus. The series is described as follows: Anticonvulsant activity against subcutaneous pentylenetetrazole-induced seizures in albino mouse assessed as duration of seizure time at 100 mg/kg, ip after 0.5 hr. The format is functional. The settings on record: route intraperitoneal.
Series [14] has as its system Mus musculus. Put plainly: Anticonvulsant activity against subcutaneous pentylenetetrazole-induced seizures in albino mouse assessed as seizure at 100 mg/kg, ip after 0.5 hr. The format is functional. To be noted: route intraperitoneal.
The subject of series [15] is Mus musculus. Put plainly: Anticonvulsant activity against maximal electroshock-induced seizures in albino mouse assessed as seizure at 100 mg/kg, ip after 0.5 hr. The format is functional. To be noted: route intraperitoneal.
The test system of series [16] is Mus musculus. The series is described as follows: Anticonvulsant activity in albino mouse assessed as protection against subcutaneous pentylenetetrazole-induced death measured as mortality at 100 mg/kg, ip after 0.5 hr. The format is functional. The settings on record: sc, route intraperitoneal.

Consider one molecule from ChEMBL document CHEMBL2429773, “Synthesis and antiseizure evaluation of isoindoline-1,3-dione derivatives in mice” (Med Chem Res, 2013).

The structures appear in SMILES notation.

Turning to `O=C1c2ccccc2C(=O)N1c1ccccc1` [N-PHENYL-PHTHALIMIDE], the mortality (in general, the share of the test organisms that died) at 30 mg/kg in the series on Mus musculus [1] amounted to 100%. In addition, the Time in the series on Mus musculus [2] worked out at 3.25 min; in the series with Mus musculus [4], 4.5 min; in the series with Mus musculus [7] it was 3.75 min; in the series on Mus musculus [8], 15.75 min; with Mus musculus [9], 6 min; in the series on Mus musculus [13], 11 min. Further, the Activity in the series on Mus musculus [3] worked out at 0%; with Mus musculus [12], 100%; in the series on Mus musculus [14], 100%; in the series on Mus musculus [15] it was 25%. Also, the mortality at 300 mg/kg with Mus musculus [5] was found to be 25%. The TD50 (commonly the dose at which the toxic effect under study appears in half of the subjects) at 0.5 h in series [6] is above 300 mg/kg. The “Ratio TD50/ED50” value with Mus musculus [10] is recorded as above 4.53. In the series with Mus musculus [11], the ED50 (in general, the dose at which the effect has come halfway, by size or by number of responders) is 66.2 mg/kg. For the same molecule, the mortality at 100 mg/kg in the series with Mus musculus [16] stood at 100%.
